Results on four compounds are retold here after patent US20100273203A1 (priority 2009, published 2010).

The structures appear in SMILES notation. Where two headings read alike, the source gives them in different places. Where only a bound is given, the exact number is not on record here.

What is called Km is the concentration of substrate that gives half-maximal velocity. As a reminder, the IC50 is the concentration that inhibits the measured activity by half. One may read the Ki as the dissociation constant of the complex between target and ligand, obtained from inhibition or displacement.

Series [1] in a line: LC-MS/MS urinary metabolic profile of patients receiving warfarin. As to conditions: for % R / % S (proportion in (S)-enantiomeric form) / % conjugated (proportion glucuronidated) / urinary concentration: urine; for urinary concentration: free and conjugated. An excerpt: All chemicals used in this study were of at least reagent grade. Unless otherwise specified, all chemicals and reagents were purchased from either Sigma-Aldrich (St. Louis, Mo.) or Thermo Fisher Scientific (Waltham, Mass.). […] Ethyl alcohol (100%) was purchased from AAPER (Shelbyville, Ky.). Re-combinant CYP2C9*1, CYP3A4, CYP1A2, and CYP2C19 were expressed in baculovirus-infected insect cells and purchased from BD Biosciences (San Jose, Calif.). Commercially available urine specimens from three females (F84, F85, and F87) were provided by the Emergency Response and Air Toxicants Branch, Division of Laboratory Science National Center for Environmental Health Centers for Disease Control and Prevention (DeKalb County, Ga.). Patient studies were conducted under IRB-approved protocols, and all patients signed informed consent documentation.
This analytical phase was accomplished by reverse-phase HPLC using a 4.6 mm×150 mm C18 Zorbax Eclipse 5 μm XDB-C18 column provided by Agilent (Santa Clara, Calif.). The operating temperature was 40° C., and the sample injection volume was 5.0 μL. HPLC mobile phases consisted H2O (0.1% acetic acid v/v) (A) and methanol (0.1% acetic acid v/v) (B). The flow rate was 1 mL/min. […] The total run time per sample was 10 min. Specific MS/MS experimental conditions used in this study are noted in Table 1.
To determine the relative abundance of the (R)-and (S)-enantiomers of each metabolite, a 4.6 mm×25 cm Chirobiotic V5 μm column supplied by Supelco (Bellefonte, Pa.) was incorporated during the second analytical phase. Mobile phases consisted of H2O (0.1% acetic acid v/v) (A) and acetonitrile (0.1% acetic acid v/v) (B) with a flow rate of 800 μL/min. Enantiomeric separations were accomplished under isocratic conditions (80% A and 20% B). The sample injection volume was 15.0 μL. Enantiomeric MS/MS analyses were performed in negative ion mode by electrospray ionization (ESI) using a Turbo IonSpray source. A total run time of 20 min was required for adequate resolution. Specific MS/MS experimental conditions used in this study are noted in the Table 2.
Each response was normalized to that of the internal standard, 7-hydroxycoumarin (10 μM). […] Measurements of these three metabolites were calculated by taking the difference of the amount measured in the first analytical phase, which contained both (R)-and (S) isomers from the amount of the (S)-isomer measured in the second analytical phase (eq 3). Glucuronidated metabolites were measured by incubating 250 μL of urine with 2000 units of GUS in 100 mM sodium acetate buffer, pH 5.0. The final volume for each of these reactions was 1 mL. Control reactions omitting GUS were included with each sample set. Reactions were incubated overnight at 37° C., after which they were stored at −80° C. Immediately before analysis, both samples were diluted with an equal volume of ethanol containing 7-hydroxycoumarin (10 μM final concentration). The difference between GUS-treated samples and controls represented the amount of glucuronidated metabolites present.

The target in a further series is UGT1A10 (Homo sapiens, UniProt Q9HAW8). As to conditions: glucuronidation; racemic OHWars. An excerpt: (§1) The characterization of hepatic and extrahepatic glucuronidation may be made based on glucuronidation studies with 100 commercially available HLM and 100 intestinal microsomal preparations available in our laboratory. […] Both racemic mixtures and separated R and S enantiomers may be assayed. […] Activities of extrahepatic (UGT1A8 and UGT1A10) and hepatic (UGT1A1, UGT1A3, and UGT1A9) isoforms may be compared to that of their respective microsomal preparations, and assign the contribution of specific UGTs to product formation by the human samples.
Chain of UGT1A10 (Q9HAW8 26-530): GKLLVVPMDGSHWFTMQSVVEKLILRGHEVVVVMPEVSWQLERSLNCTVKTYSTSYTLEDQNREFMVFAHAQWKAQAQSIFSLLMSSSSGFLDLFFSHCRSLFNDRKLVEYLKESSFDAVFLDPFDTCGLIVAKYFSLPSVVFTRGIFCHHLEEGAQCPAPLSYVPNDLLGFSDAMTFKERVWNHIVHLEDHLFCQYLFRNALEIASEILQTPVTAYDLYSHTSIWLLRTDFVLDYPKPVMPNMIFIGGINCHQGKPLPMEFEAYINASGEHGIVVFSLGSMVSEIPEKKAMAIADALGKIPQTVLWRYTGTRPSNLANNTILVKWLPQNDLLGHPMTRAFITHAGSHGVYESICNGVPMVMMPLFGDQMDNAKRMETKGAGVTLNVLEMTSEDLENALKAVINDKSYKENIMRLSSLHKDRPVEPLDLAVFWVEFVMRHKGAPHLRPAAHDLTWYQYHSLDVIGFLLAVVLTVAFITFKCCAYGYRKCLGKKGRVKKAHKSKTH

The next series has as its target UGT1A8 (Homo sapiens, UniProt Q9HAW9). As to conditions: glucuronidation; racemic OHWars.
From the text: as §1

The next series concerns the target UGT1A9 (Homo sapiens, UniProt O60656). As to conditions: glucuronidation; racemic OHWars.
From the text: as §1

Series [2] has as its target T1, CYP2C9 (Homo sapiens, UniProt P11712). As to conditions: read-out: IC50 toward recombinant CYP2C9 activity; P450-Glo, 50 μM Luciferin H; racemic compounds. The protocol: Hydroxywarfarins were screened for inhibitory potential toward recombinant CYP2C9 using the Promega (Madison, Wis.) CY2C9 P450-Glo™ Assay using the manufacturer's protocol. These IC50 studies were analyzed on a PerkinElmer Victor^3V™ 1420 Multilabel Counter. Recombinant CYP2C9, 50 nM, was incubated with 50 μM Luciferin H, and six concentrations of each hydroxywarfarin from approximately 10 nM to 4 mM final concentration, as optimized for each compound. The appropriate volume of hydroxywarfarin stocks in 100% ethanol were added to each well prior to addition of the substrate and enzyme, and the ethanol was allowed to evaporate at room temperature to minimize solvent effects on CYP2C9 activity. A final DMSO concentration of 1% was present in the reactions due to the P450-Glo Luciferin H. The reaction was initiated upon addition of an NADPH regenerating solution (BD Biosciences) and quenched with a luciferase quench (Promega) at 30 min.

Series [3] addresses CYP2C9 present in the human liver microsomes (Homo sapiens, UniProt P11712). As to conditions: for Ki / Mechanism of inhibition: S-warfarin metabolism. The protocol:
(§2) For each hydroxywarfarin, at least 4 independent experimental replicates were performed.
(§3) MS/MS experimental conditions was used as described previously (6).
(§4) The most probable inhibition mechanism for recombinant CYP2C9 and human liver microsome reactions was identified using DynaFit ver. 3.28 (Biokin, Ltd) (20). Data from each set of hydroxywarfarin experiments were fit to traditional reversible inhibition mechanisms (competitive, uncompetitive, noncompetitive, or mixed). The respective kinetic parameters (Ki and Ki′) were set as variables, while the kinetic parameters (Vmax and Km) were constants based on values obtained from uninhibited reactions. The most probable mechanism was then identified using the Akaike Information Criterion (AICc) for model discrimination (21).

Series [4] addresses T2, CYP2C9*1 (Homo sapiens, UniProt P11712). As to conditions: for Ki / Mechanism of inhibition: S-warfarin metabolism. The protocol:
as §2, §3, §4

Series [5] concerns the target T3, CYP1A2 (Homo sapiens, UniProt P05177).
T3 sequence (P05177 1-516): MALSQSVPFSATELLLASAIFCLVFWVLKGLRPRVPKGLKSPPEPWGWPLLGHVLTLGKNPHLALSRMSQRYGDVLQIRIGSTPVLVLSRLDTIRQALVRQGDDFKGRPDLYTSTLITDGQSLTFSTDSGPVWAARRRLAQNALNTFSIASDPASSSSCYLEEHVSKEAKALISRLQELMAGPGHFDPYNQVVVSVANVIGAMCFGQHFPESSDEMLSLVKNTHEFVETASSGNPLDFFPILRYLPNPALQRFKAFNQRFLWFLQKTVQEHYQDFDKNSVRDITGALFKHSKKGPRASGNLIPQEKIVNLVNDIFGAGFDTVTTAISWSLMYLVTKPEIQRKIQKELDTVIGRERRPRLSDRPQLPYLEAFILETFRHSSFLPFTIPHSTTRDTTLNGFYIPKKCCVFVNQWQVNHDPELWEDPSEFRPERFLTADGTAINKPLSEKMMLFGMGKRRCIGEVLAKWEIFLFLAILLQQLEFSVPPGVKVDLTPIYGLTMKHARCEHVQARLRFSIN
As to conditions: read-out: IC50 for CYP marker reaction; P450-Glo marker reaction.

Series [6] concerns the target T2, CYP2C9*1. As to conditions: read-out: IC50 for CYP marker reaction; P450-Glo marker reaction.
The target of series [7] is T4, CYP3A4 (Homo sapiens, UniProt P08684). As to conditions: read-out: IC50 for CYP marker reaction; P450-Glo marker reaction.
T4 sequence (P08684 whole entry): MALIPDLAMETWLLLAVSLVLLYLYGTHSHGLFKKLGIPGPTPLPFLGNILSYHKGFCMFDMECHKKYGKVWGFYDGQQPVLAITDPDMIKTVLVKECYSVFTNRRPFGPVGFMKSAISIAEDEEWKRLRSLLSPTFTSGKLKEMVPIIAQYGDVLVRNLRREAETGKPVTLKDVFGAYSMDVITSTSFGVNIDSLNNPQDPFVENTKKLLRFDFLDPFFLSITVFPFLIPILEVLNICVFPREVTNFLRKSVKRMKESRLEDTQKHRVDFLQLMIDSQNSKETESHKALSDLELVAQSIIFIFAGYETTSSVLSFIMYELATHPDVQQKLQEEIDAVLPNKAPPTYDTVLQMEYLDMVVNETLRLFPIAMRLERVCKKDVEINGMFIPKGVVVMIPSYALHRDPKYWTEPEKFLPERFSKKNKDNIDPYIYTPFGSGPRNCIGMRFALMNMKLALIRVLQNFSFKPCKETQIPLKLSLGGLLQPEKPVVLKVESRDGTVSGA
In another series the test system is plasma proteins. As to conditions: cited from earlier work.
Series [8] deals with T1, CYP2C9. As to conditions: read-out: reported Km; cited from earlier work.
In series [9] the target is T3, CYP1A2. Nature of the series: biochemical.
A further series addresses UGT1A1 (Homo sapiens, UniProt P22309). As to conditions: glucuronidation; racemic OHWars.
From the text: as §1

Series [10] in a line: Estimated unbound levels in plasma of long-term warfarin therapy patients. As to conditions: estimated from literature data.
For series [11], the target named is T1, CYP2C9. As to conditions: not metabolized by CYP2C9; cited from earlier work.
For series [12], the target named is T4, CYP3A4. As to the kind of experiment: Steady-state metabolism of R- and S-warfarin by recombinant CYP3A4.
Description: (§5) Reactions were initiated upon addition of an NADPH regenerating system [2 μU μL-1 glucose 6-phosphate dehydrogenase, 10 mM glucose 6-phosphate, 2 mM MgCl2, 1 mM NADP^+]. […] The quenched reactions were centrifuged and the resulting supernatant containing substrate and products resolved and quantified by UPLC-MS/MS. Each experiment was performed in at least 4 independent experimental replicates.
(§6) The flow rate was constant at 250 μL/min. […] Electrospray conditions were as follows: spray voltage of 4500 V, sheath gas pressure 45, auxiliary gas pressure 20, and collision energy of 15-15 eV (compound specific).
(§7) Final metabolite concentrations were calculated from the ratio of metabolite area to internal standard area in the sample and compared to calibration curves as determined from the UPLC-MS/MS method. All compounds were quantified relative to authentic standards. The resulting kinetic data were analyzed with GraphPad Prism 5® software. Non-linear regression analysis was used to fit steady-state data to the Michaelis-Menten equation to determine the Vmax and Km parameters.
In the next series the target is CYP3A7 (Homo sapiens, UniProt P24462). As to the kind of experiment: Steady-state metabolism of R- and S-warfarin by recombinant CYP3A7.
Chain of CYP3A7 (P24462 whole entry): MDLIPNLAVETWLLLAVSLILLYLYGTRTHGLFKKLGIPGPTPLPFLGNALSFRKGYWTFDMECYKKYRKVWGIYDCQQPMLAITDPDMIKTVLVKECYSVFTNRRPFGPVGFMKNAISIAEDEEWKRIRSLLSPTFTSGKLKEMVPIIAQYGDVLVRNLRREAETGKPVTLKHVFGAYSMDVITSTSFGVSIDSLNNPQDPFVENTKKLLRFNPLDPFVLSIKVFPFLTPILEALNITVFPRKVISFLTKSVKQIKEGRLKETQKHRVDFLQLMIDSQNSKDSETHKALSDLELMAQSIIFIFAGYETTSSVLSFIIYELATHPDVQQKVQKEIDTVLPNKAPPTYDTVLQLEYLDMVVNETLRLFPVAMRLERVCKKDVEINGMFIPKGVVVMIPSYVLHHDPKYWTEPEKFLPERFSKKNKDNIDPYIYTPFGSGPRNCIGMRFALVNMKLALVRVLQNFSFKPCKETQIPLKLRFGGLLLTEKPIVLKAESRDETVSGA
[13] abbreviates: 7-hydroxywarfarin formation as marker.
Setting [14] is: based on S-6-hydroxywarfarin formation.
Setting [15] is: 10-hydroxywarfarin formation, 37° C, pH 7.4.

T1 sequence (P11712 whole entry): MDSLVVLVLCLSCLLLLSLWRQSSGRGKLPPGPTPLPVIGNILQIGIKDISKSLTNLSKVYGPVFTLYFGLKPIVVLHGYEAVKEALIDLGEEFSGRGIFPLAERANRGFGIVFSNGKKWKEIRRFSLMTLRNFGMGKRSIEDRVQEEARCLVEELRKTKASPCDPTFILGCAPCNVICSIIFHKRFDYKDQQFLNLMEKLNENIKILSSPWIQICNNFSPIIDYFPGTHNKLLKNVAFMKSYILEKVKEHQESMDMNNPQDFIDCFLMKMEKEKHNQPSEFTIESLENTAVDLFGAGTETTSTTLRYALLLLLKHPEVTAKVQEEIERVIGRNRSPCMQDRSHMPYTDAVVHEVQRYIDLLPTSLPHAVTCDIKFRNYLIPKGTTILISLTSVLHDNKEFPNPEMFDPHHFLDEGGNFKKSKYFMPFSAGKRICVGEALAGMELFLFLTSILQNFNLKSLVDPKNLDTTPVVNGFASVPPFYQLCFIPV
Chain of CYP2C9 present in the human liver microsomes (P11712 whole entry): as above
Chain of UGT1A1 (P22309 26-533): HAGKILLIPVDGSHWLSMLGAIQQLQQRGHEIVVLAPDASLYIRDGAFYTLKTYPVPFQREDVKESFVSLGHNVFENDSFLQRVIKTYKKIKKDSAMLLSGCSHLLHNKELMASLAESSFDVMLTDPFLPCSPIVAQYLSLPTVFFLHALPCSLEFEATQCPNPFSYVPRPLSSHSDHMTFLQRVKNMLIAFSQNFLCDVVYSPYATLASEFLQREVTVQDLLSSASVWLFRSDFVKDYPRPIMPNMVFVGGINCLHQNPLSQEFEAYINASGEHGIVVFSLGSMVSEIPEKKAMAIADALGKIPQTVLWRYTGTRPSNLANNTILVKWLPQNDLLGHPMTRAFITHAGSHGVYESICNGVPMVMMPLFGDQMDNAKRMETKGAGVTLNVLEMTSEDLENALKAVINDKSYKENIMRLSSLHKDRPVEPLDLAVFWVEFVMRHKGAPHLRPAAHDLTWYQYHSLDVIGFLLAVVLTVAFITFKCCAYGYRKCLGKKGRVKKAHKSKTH
Chain of UGT1A8 (Q9HAW9 26-530): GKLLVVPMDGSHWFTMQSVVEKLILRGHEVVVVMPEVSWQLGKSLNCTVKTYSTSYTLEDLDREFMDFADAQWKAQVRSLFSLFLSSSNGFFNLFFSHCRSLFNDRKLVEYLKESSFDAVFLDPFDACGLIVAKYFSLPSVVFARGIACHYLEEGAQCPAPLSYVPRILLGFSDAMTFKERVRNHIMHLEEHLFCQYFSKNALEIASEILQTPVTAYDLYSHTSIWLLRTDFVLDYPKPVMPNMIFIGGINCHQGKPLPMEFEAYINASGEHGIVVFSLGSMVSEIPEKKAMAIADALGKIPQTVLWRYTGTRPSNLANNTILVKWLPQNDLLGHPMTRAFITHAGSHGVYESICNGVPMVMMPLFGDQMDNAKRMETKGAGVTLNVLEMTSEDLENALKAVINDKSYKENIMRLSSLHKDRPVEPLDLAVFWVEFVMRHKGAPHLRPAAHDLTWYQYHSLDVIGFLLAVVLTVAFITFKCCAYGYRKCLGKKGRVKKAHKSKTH
Chain of UGT1A9 (O60656 26-530): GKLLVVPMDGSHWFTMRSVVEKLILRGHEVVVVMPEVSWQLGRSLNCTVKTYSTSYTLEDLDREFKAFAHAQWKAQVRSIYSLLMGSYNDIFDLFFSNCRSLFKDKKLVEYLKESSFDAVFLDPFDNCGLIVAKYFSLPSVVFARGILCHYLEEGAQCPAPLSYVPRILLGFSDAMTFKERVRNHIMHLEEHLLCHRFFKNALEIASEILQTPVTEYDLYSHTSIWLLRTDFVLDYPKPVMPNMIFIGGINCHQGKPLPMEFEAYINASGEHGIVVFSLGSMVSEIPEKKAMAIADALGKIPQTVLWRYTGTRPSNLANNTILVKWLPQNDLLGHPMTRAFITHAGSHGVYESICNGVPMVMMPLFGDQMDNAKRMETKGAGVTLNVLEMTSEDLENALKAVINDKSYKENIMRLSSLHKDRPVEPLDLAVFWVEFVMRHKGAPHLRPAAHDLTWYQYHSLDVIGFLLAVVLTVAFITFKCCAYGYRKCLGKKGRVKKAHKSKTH
Description for CYP3A7: as §5, §6, §7

As for `CC(=O)CC(c1ccccc1)c1c(O)c2cccc(O)c2oc1=O` (centres unmarked) [8-OH-WAR, 8-hydroxywarfarin], the “% R” value is 100% in series [1] (patient F84), 98% in series [1] (patient F85) and 69% in [1] (patient F87). Further, the “% S (proportion in (S)-enantiomeric form)” value in series [1] (patient F84) was 0%; in [1] (patient F85), 2%; in series [1] (patient F87) it was 31%. Also, the “% conjugated (proportion glucuronidated)” value in [1] (patient F84) is 31%; in series [1] (patient F85), 53%; in [1] (patient F87), 7%. Moreover, the urinary concentration turned out to be 111 nM in series [1] (patient F84), 109 nM in series [1] (patient F85) and 231 nM in series [1] (patient F87). For the same compound, the Km at UGT1A10 was 383 ± 81 µM; at UGT1A8 it was 206 ± 70 µM; on UGT1A9, 107 ± 36 µM. The Vmax amounted to 25 ± 2 nmol/mg protein/min on UGT1A10, 1.5 ± 0.1 nmol/mg protein/min on UGT1A8 and 1.7 ± 0.1 nmol/mg protein/min on UGT1A9. For the same compound, the IC50 at CYP2C9 [2] was found to be 16 µM; on CYP1A2 [5], 830 µM; on CYP2C9*1 [6] it was 17.2 µM; at CYP3A4 [7], 240 µM. Besides, the Ki stood at 13 µM in series [3] (setting [13]); 21 µM on CYP2C9*1 [4] (setting [13]); 103 µM on CYP2C9*1 [4] (7-hydroxywarfarin formation as marker, mixed inhibition). The figures for the Mechanism of inhibition result (in [3] (setting [13]); on CYP2C9*1 [4] (setting [13])) were “Competitive” and “Mixed”, respectively. The “plasma protein binding affinity relative to warfarin” value in the series with plasma proteins is “three- to four-fold lower affinity”.

For `CC(=O)CC(c1ccccc1)c1c(O)c2ccccc2oc1=O` (racemic) [WAR, warfarin], the “individual concentrations in urine” value in series [1] (female, human, in vivo) was in the range of 10 to 200 nM. For the same compound, the Km on CYP2C9 [8] was 2.6 µM. This compound also displayed an IC50 on CYP1A2 [9] of 740 µM.

Take `CC(=O)CC(c1ccccc1)c1c(O)c2ccc(O)cc2oc1=O` (centres unmarked) [7-OH-WAR, 7-hydroxywarfarin]: the “% R” value in series [1] (patient F84) is on record as 80%; in [1] (patient F85) it was 38%; in series [1] (patient F87), 52%. The results for the “% S (proportion in (S)-enantiomeric form)” value in series [1] (patient F84), in series [1] (patient F85) and in series [1] (patient F87) were 20%, 62% and 48%, respectively. Moreover, the results for the “% conjugated (proportion glucuronidated)” value in [1] (patient F84), in series [1] (patient F85) and in series [1] (patient F87) were 69%, 28% and 14%, respectively. Besides, the urinary concentration turned out to be 1964 nM in series [1] (patient F84), 2404 nM in [1] (patient F85) and 724 nM in series [1] (patient F87). Further, the Km turned out to be 58.8 ± 24 µM at UGT1A1 and 220 ± 40 µM at UGT1A10. The Vmax is listed as 1.3 ± 0.1 nmol/mg protein/min on UGT1A1 and 1.0 ± 0.1 nmol/mg protein/min on UGT1A10. The IC50 at CYP2C9 [2] is 35 µM; at CYP1A2 [5], 400 µM; at CYP2C9*1 [6] it was 45.7 µM; at CYP3A4 [7], over 500 µM. Besides, the figures for the Ki (in [3] (setting [14]); on CYP2C9*1 [4] (setting [14])) were 64 µM and 10 µM, respectively. Besides, the Mechanism of inhibition entry (in series [3] (setting [14]); at CYP2C9*1 [4] (setting [14])) was “Competitive” in each case. Further, the “Ki, fold higher than the marker Km” value is 8.5 fold in [3] (human liver microsomes) and 4.5 fold at CYP2C9*1 [4] (recombinant CYP2C9). The “plasma protein binding affinity relative to warfarin” value in the series with plasma proteins is listed as “three- to four-fold lower affinity”. Further, the “mean unbound concentration in human plasma (estimated)” value in series [10] is 6.2 ng/mL.

As to `CC(=O)C[C@H](c1ccccc1)c1c(O)c2ccccc2oc1=O` [R-warfarin, (R) warfarin], the Ki on CYP2C9 [11] is about 8 µM. The Km on CYP3A4 [12] (4′-hydroxywarfarin formation) worked out at 36 µM; at CYP3A4 [12] (10-hydroxywarfarin formation), 16 µM; at CYP3A7 (4′-hydroxywarfarin formation), 1390 µM; on CYP3A7 (10-hydroxywarfarin formation), 54 µM. Also, the Vmax was 98 pmol product/min/nmol P450 on CYP3A4 [12] (4′-hydroxywarfarin formation), 1055 pmol product/min/nmol P450 on CYP3A4 [12] (setting [15]), 260 pmol product/min/nmol P450 at CYP3A7 (4′-hydroxywarfarin formation) and 116 pmol product/min/nmol P450 at CYP3A7 (setting [15]).
